Source: patent US20240287148A1, “ENGINEERED BIOMOLECULES FOR NUTRIENT REPROGRAMMING” (CORNELL UNIVERSITY, priority 2021, published 2024)
Where a SMILES comes first, the peptide text is derived from it. The star is where a group is joined. Cbz = O=C(OCc1ccccc1)*; CH2F = FC*

What was measured:
MEF cells [1] = test: Cell viability assay (ferroptosis) in MEF cells; format: cell-based, mouse; conditions: for cell death under cystine restriction (cell viability): Necrostatin 5 μM, Ferrostatin 1 μM
Protocol: Cells were seeded into 96-well plates at 3,000 cells per well. After 16 hr, cells were subject to conditions of the indicated experiments. Cells were incubated for 24 hr in their experimental conditions and cell viability was measured using the CellTiter-Blue viability assay (Promega) following the manufacturer's instructions. Relative cell viability in the presence of starvation and/or compounds was normalized to the vehicle-treated controls after background subtraction.

ATF4 = ATF4 expression in MEF cells (western blotting, RT-qPCR of Atf4); format: cell-based, mouse; conditions: for ATF4 induction in cystine-starved cells: cystine deprivation
Protocol: For cystine and methionine deprivation, the experiment was carried out by incubating cells in DMEM, high glucose, no glutamine, no methionine, no cystine (Thermo Fisher: 21013024) with 10% dialyzed FBS (Sigma Aldrich: F0392). For leucine, histidine, and arginine deprivation, the experiment was carried out by incubating cells in DMEM, high glucose, no arginine, no histidine, no leucine, respectively, (custom prepared by Gibco/Invitrogen) with 10% dialyzed FBS (Sigma Aldrich: F0392). For full amino acid starvation, the experiment was carried out by incubating cells in HBSS buffer (Lonza) with 10% dialyzed FBS (Sigma Aldrich: F0392). Samples were collected at indicated experimental time points.
Following experimental conditions, total RNA was isolated by TRIzol reagent (Invitrogen) and reverse transcription was performed using High-Capacity cDNA Reverse Transcription Kit (Invitrogen). Real-time PCR analysis was conducted using Power SYBR Green PCR Master Mix (Applied Biosystems) and data was generated using a LightCycler 480 Real-Time PCR System (Roche Applied Science). qPCR oligo sequences are listed in Table 4.
(§1) Cells were washed with PBS (Gibco) and then lysed on ice using cell lysis buffer (50 mM Tris [pH7.5], 150 mM NaCl, 1 mM EDTA, 1% Triton X-100, 2 U/ml DNase and protease inhibitor cocktail tablet). The lysates were incubated on ice for 30 min and spun down at 10,000 rpm for 3 mins to collect supernatant. Collected supernatant was measured by protein assay (Bio-Rad: 500-0112) to quantify the protein concentration. Equal amounts of proteins across samples were mixed with SDS-PAGE sample buffer (50 mM Tris [pH6.8], 100 mM dithiothreitol, 2% SDS, 0.1% bromophenol blue, 10% glycerol) and heated for 9 mins at 95° C. Denatured proteins were separated on SDS-PAGE and transferred to PVDF membranes (Fisher). Membranes were blocked in TBS containing 5% non-fat milk and 0.1% Tween-20 for 1 hr. Phospho-proteins were blocked in TBS containing 5% BSA and 0.1% Tween-20 for 1 hr. Blocking was followed by incubation with primary antibodies overnight at 4° C. Membranes were washed using TBST followed by subsequent incubation using horseradish peroxidase-coupled secondary antibodies at room temperature for 1 hr. Immunoblots were washed again using TBST and visualized using enhanced chemiluminescence (ECL-Plus, GE Healthcare).

MEF cells [2] = test: Lipid peroxidation measurement (C11-BODIPY, flow cytometry) in MEF cells; format: cell-based, mouse; conditions: for lipid oxidation in cystine-starved cells (C11-BODIPY): cystine deprivation 18 hrs, BafA1 50 nM or ConA
Protocol: Cells were plated in 6-well dishes and followed by indicated treatments. After treatment, cells were incubated with fresh medium containing 2 μM BODIPY 581/591 C11 dye (Invitrogen: D3861) for 15 min. Cells were next collected and washed twice with ice-cold PBS followed by fluorescence-activated cell sorting (FACS) analysis using Thermo Fisher Attune NxT. Fluorescence captured during analysis was gated and plotted using FCS Express 7.

NRF2 = test: ARE-driven Fluc reporter assay (NRF2 activity) in MEF cells; format: cell-based, mouse; conditions: cystine starvation 8 hr, BafilomycinA 50 nM or ConcanamycinA 100 nM
Protocol: (§2) Firefly luciferase reporters were co-transfected with a Renilla reporter plasmid into MEF cells or CTNS knockdown cells for 4 hrs. Transfected cells were treated with amino acid starvation and/or compound treatment at indicated timepoints. Firefly and Renilla luciferase activities were measured using Dual-Luciferase Reporter Assay System (Promega). Relative values of firefly luciferase activities were normalized to Renilla luciferase control.

MEF cells [3] = test: Intracellular cysteine and cystine measurement in MEF cells (HPLC); format: cell-based, mouse
Protocol: Cells were grown on 100 mm dishes until 80-90% confluent. Cells were lysed on ice in lysis buffer (50 mM Tris [pH7.5], 150 mM NaCl, 1 mM EDTA, 1% Triton X-100, 2 U/ml DNase and protease inhibitor cocktail tablet), followed by centrifugation at 10,000 rpm for 8 min at 4° C. The supernatant was collected and 100 μL of sample was mixed with 10 μL TCEP (50 mM in borate buffer [pH 7.4]) (Sigma Aldrich) in a vial and incubated at 25° C. for 10 min.
90 μL of a solution containing 1% TCA and 1 mM EDTA was then added. The total solution was centrifuged for 10 min at 10,000 g at 4° C. 100 μL of the obtained supernatant, 20 μL of 10 mM CNBF solution (4-chloro-3,5-dinitrobenzotrifluoride [Sigma Aldrich: 197017]), 20 μL of methanol, and 50 μL of borate buffer (0.2 M [pH 8.0])) were mixed and incubated at 25° C. for 20 min. Derivatization was terminated with 10 μL of 2M HCl followed by HPLC analysis (see below).
Cells were grown on 100 mm dishes until 80-90% confluent. Cells were lysed on ice in lysis buffer (50 mM Tris [pH7.5], 150 mM NaCl, 1 mM EDTA, 1% Triton X-100, 2 U/ml DNase and protease inhibitor cocktail tablet). 100 μL of sample was mixed with 100 μL of 6%5-Sulfosalicylic Acid Dyhydrate solution (Sigma: S3147), followed by centrifugation at 3,000 g for 15 min at 4° C. The supernatant was collected and 25 μL of freshly made derivatizing solution was added. Samples sat at room temperature for 20 mins, followed by rotary evaporation. Dried material was dissolved in 150 μL of phase A solution followed by HPLC analysis (see below).
All resulting solutions for cysteine, glutathione, and cystine were filtered through a 0.22 μm filter membrane (Millipore Corporation, Belfast, MA, USA) and injected into a chromatographic system. High performance liquid chromatography (HPLC) was performed using a LC-20AT pump with a SPD-20AV UV-vis detector monitored at 270 and 220 nm (Shimadzu, Japan) equip with an Ultra Aqueous C18 column (100 Å, 5 μm, 250 mm×4.6 mm; Restek, USA) at a flow rate of 1 mL/min with a mobile phase containing 0.1% trifluoroacetic acid (TFA) in H2O or acetonitrile. Values were normalized to protein concentration by Bradford assay.

MEF cells [4] = test: Cell fractionation and western blotting of MEF cells transfected with CysRx; format: cell-based, mouse; conditions: BafilomycinA 50 nM for 12 hrs
Protocol: as §1
MEF cells were grown in four 15 cm dishes until 80% confluent (˜3×10^8 cells) followed by washing twice with ice-cold PBS. […]

Atf4 promoter = test: Atf4 promoter-driven Fluc reporter assay in MEF cells; format: cell-based, mouse; conditions: BafilomycinA 50 nM 8 hrs with or without cystine deprivation
Protocol: as §2

[5] = Body weight of tumor-bearing mice; format: in vivo, mouse; conditions: mice with UMRC6 tumors; IKE 10 mg/kg/2d intraperitoneal; CysRx-TT3 intratumoral
Protocol: (§3) Previously established UMRC6 tumors were immediately excised from CO2 euthanized mice and minced using a surgical 10 blade. Approximately […] portions of tumor were bilaterally implanted into 6-8-week-old NSG mice. Animals were monitored for tumor growth and randomized into treatment groups when tumors reached 150-200 mm^3 in size. IKE/vehicle treated animals received intraperitoneal injections every other day (10 mg/kg). CysRx-TT3 treatment was conducted via weekly intratumoral (IT) injections (100 μL) for three weeks. Tumors for IT injections were demarcated into four quadrants and an equal volume (25 μL) of CysRx-TT3 was injected into each quadrant. HiBit-TT3 was injected into the other flank as control. Mice were monitored for tumor growth three times per week using digital calipers. Health and body condition were also monitored concurrently. Animals were sacrificed by CO2 euthanasia (3.5 L/min) one week after final administration or when the body condition started to deteriorate. Tumors were excised from the flank using a surgical 10 blade, weighed and either flash frozen or fixed in 4% PFA.

UMRC6 tumors = test: CysRx treatment of xenografted UMRC6 tumors in mice (tumor growth); format: in vivo, mouse; conditions: IKE 10 mg/kg intraperitoneal every other day, 25 days
Protocol: as §3
Magnetic resonance imaging (MRI) of mice was conducted using a 1T M3 compact MRI from Aspect Imaging Ltd. Mice were anesthetized using 2.5% isoflurane and placed onto the specimen arm, coil was then placed around the subject and fixed in place. […]

[6] = MEF cells, 24 hrs cystine deprivation, Z-VAD 20 μM
[7] = BafilomycinA 50 nM for 12 hrs, normalized to protein
[8] = MEF cells, cystine deprivation 24 hrs, BafilomycinA 50 nM or ConcanamycinA 100 nM

CCOC(=O)c1ccc(NC2CCCCC2)c(N)c1 [ferrostatin-1]
cell death under cystine restriction (cell viability) (MEF cells [1]; [6]): prevented

O=C1O[C@H]([C@@H](O)CO)C(O)=C1O [ascorbic acid]
ATF4 induction upon cystine starvation (ATF4; MEF cells, 8 hrs cystine starvation, Ascorbic Acid 20 μM): little effects
ATF4 expression induced by homocysteic acid (HCA) (ATF4; MEF cells, HCA 10 mM, Ascorbic Acid 20 μM): attenuated

CC(C)n1cnc2c(NCCc3ccc(O)cc3)nc(-c3csc4ccccc34)nc21 [SR1]
ferroptosis of cystine-starved cells (cell viability) (MEF cells [1]; MEF cells, cystine deprivation 24 hrs, SR1 200 nM or Indirubin 2 μM): promoted
ATF4 induction in cystine-starved cells (ATF4; MEF cells, SR1 200 nM or Indirubin 2 μM): significantly reduced

CO/C1=C\C(C)=C\[C@@H](C)[C@@H](O)[C@@H](C)C/C(C)=C/C=C/[C@H](OC)[C@@H]([C@@H](C)[C@@H](O)[C@H](C)[C@@]2(O)C[C@@H](O)[C@H](C)[C@@H](C(C)C)O2)OC1=O [BafA1, bafilomycin A1]
lipid oxidation in cystine-starved cells (C11-BODIPY) (MEF cells [2]): significantly reduced
NRF2 activation (ARE Fluc reporter) (NRF2): prevented
cysteine level (MEF cells [3]; [7]): increase
cystine level (MEF cells [3]; [7]): decrease
cytosolic cysteine level in cystine-starved cells (MEF cells [3]; cystine deprivation, BafilomycinA 50 nM 12 hrs): partially restored
CysRx level (western blotting) (MEF cells [4]): CysRx accumulation
ferroptosis in cystine-starved cells (cell viability) (MEF cells [1]; [8]): prevented
Atf4 promoter-driven Fluc activity (normalized to Renilla) (Atf4 promoter): transcriptional upregulation
ATF4 induction in cystine-starved cells (ATF4; MEF cells, BafilomycinA 50 nM 8 hrs, ConcanamycinA 100 nM 12 hrs): greatly potentiated

N[C@@H](CCS(=O)(=O)O)C(=O)O [homocysteic acid]
ATF4 expression (ATF4; MEF cells, HCA 10 mM): induced

C[C@@H]1C[C@@H]([C@H](O)CC2CC(=O)NC(=O)C2)C(=O)[C@@H](C)C1 [cycloheximide]
intracellular cyst(e)ine levels (MEF cells [3]; 12 hrs amino acid starvation, Cycloheximide 50 μM): largely restored
ferroptosis induced by erastin and sulfasalazine (cell viability) (MEF cells [1]; MEF cells, 24 hrs Erastin 20 μM or Sulfsalazine 200 μM, Cycloheximide 50 μM): partially rescued
increased ferroptosis susceptibility under cystine deprivation (cell viability, lipid ROS) (MEF cells [1]; MEF cells, 24 hrs cystine deprivation, Cycloheximide 50 μM): prevented

NCCS [cysteamine]
lipid oxidation in cystine-starved cells (MEF cells [2]; cystine deprivation, Cysteamine 0.5 mM for 18 hrs): eliminated
cysteine in the cytosol (MEF cells [3]; Cysteamine 0.5 mM, 12 hrs): increase
lysosomal cystine level (MEF cells [3]; Cysteamine 0.5 mM, 12 hrs): readily depleted
ferroptotic cell death of cells lacking cystinosin (MEF cells [1]; MEF cells with CTNS knockdown, 24 hrs cystine deprivation, Cysteamine 0.5 mM): rescued
ferroptosis in cystine-starved cells (cell viability) (MEF cells [1]; MEF cells, cystine deprivation, Cysteamine 0.5 mM for 24 hrs): rescued
ATF4 induction under the cystine rich condition (ATF4; MEF cells, Cysteamine 0.5 mM, 12 hrs): pronounced ATF4 induction

CN1C(=O)C(Cc2c[nH]c3ccccc23)NC1=S (stereo not drawn) [necrostatin, necrostatin-1]
cell death under cystine restriction (cell viability) (MEF cells [1]; [6]): not

CCCCS(=N)(=O)CCC(N)C(=O)O (stereo not drawn) [BSO, buthionine sulfoximine]
ATF4 expression (ATF4; MEF cells, BSO 10 μM, 8 hrs): induced

O=C(O)c1cc(/N=N/c2ccc(S(=O)(=O)Nc3ccccn3)cc2)ccc1O [sulfasalazine]
susceptibility of cells lacking cystinosin (cell viability) (MEF cells [1]; MEF cells with CTNS knockdown, Erastin 20 μM, Sulfsalazine 200 μM): highly susceptible
ferroptosis (cell viability) (MEF cells [1]; MEF cells, 24 hrs, Erastin 20 μM, Sulfsalazine 200 μM): induced

COC(=O)C[C@H](NC(=O)[C@H](C)NC(=O)[C@@H](NC(=O)OCc1ccccc1)C(C)C)C(=O)CF [Z-VAD] (Cbz-Val-Ala-Asp(OMe)-CH2F)
cell death under cystine restriction (cell viability) (MEF cells [1]; [6]): not
reduced cell viability under full amino acid starvation (MEF cells [1]; MEF cells, 24 hrs full amino acid starvation, Z-VAD 20 μM): rescued

O=C(COc1ccc(Cl)cc1)NC1CCC(NC(=O)COc2ccc(Cl)cc2)CC1 (stereo not drawn) [ISRIB]
cystine shortage-induced ATF4 upregulation (western blotting) (ATF4; eIF2a(S/S) and eIF2a(A/A) MEF cells, 8 hrs amino acid starvation, ISRIB 100 nM): insensitive

CC(C)Oc1ccc(C(=O)Cn2ccnc2)cc1-n1c(CN2CCN(C(=O)COc3ccc(Cl)cc3)CC2)nc2ccccc2c1=O [IKE, imidazole ketone erastin]
body weight [5]: weight loss
tumor growth (UMRC6 tumors): suppressed

C/C=C/[C@H]1O[C@@](O)([C@@H](C)[C@H](O)[C@H](C)[C@H]2OC(=O)/C(OC)=C/C(C)=C/[C@@H](C)[C@@H](O)[C@@H](CC)[C@@H](O)[C@H](C)C/C(C)=C/C=C/[C@@H]2OC)C[C@@H](O[C@H]2C[C@@H](O)[C@H](OC(N)=O)[C@@H](C)O2)[C@@H]1C [ConA, concanamycin A]
lipid oxidation in cystine-starved cells (C11-BODIPY) (MEF cells [2]): significantly reduced
NRF2 activation (ARE Fluc reporter) (NRF2): prevented
ferroptosis in cystine-starved cells (cell viability) (MEF cells [1]; [8]): prevented
